The source made the active and inactive calls. The calls are words filed in the database; no cut-off is given here.
Columns and labels:
RAW264.7 [1] = experiment: Antiinflammatory activity in LPS-induced mouse RAW264.7 cells assessed as inhibition of NO production pretreated for 1 hr followed by LPS stimulation and measured after 23 hrs by Griess method; format: functional, cell-based
RAW264.7 [2] = experiment: Inhibition of LPS-induced NF-kappaB activation in mouse RAW264.7 cells assessed as inhibition of p65 phosphorylation at 20 uM pretreated for 1 hr followed by LPS stimulation and measured after 24 hrs by Western blot analysis; format: cell-based; conditions: time 25.0 hrs
RAW264.7 [3] = experiment: Antiinflammatory activity in LPS-induced mouse RAW264.7 cells assessed as inhibition of TNF-alpha production at 20 uM pretreated for 1 hr followed by LPS stimulation and measured after 24 hrs by ELISA; format: functional, cell-based; conditions: time 25.0 hrs
RAW264.7 [4] = experiment: Antiinflammatory activity in LPS-induced mouse RAW264.7 cells assessed as inhibition of IL-6 production at 20 uM pretreated for 1 hr followed by LPS stimulation and measured after 24 hrs by ELISA; format: functional, cell-based; conditions: time 25.0 hrs
RAW264.7 [5] = experiment: Cytotoxicity against mouse RAW264.7 cells assessed as reduction in cell viability at 1 to 20 uM incubated for 24 hrs by MTT assay; format: toxicity, cell-based; conditions: raw264.7, 24 h, dose 1-20 µM
RAW264.7 [6] = experiment: Antiinflammatory activity in LPS-induced mouse RAW264.7 cells assessed as inhibition of NO production at 1 to 20 uM pretreated for 1 hr followed by LPS stimulation and measured after 23 hrs by Griess method; format: functional, cell-based; conditions: dose 1-20 µM, time 24.0 hrs

| IC50 (RAW264.7 [1]) | SMILES | inhibition (RAW264.7 [2]) | Activity (RAW264.7 [3]) | Activity (RAW264.7 [4]) | Activity (RAW264.7 [5]) | Activity (RAW264.7 [6]) |
| --- | --- | --- | --- | --- | --- | --- |
| 7.31 µM | COc1ccc2c(c1)c(CC(=O)O)c(C)n2C(=O)c1ccc(Cl)cc1 [INDOMETHACIN] | Active |  |  |  |  |
|  | C=C1CC[C@H]2C(C)(C)CCC[C@]2(C)[C@H]1C/C=C(\CC(=O)OCc1cn(CCN2C(=O)C(=O)c3cc(Cl)ccc32)nn1)C(=O)OCc1cn(CCN2C(=O)C(=O)c3cc(Cl)ccc32)nn1 |  | Active | Active | Non-Toxic |  |
|  | C=C1CC[C@H]2C(C)(C)CCC[C@]2(C)[C@H]1C/C=C(/C=O)CC(=O)OCc1cn(CCCCN2C(=O)C(=O)c3cc(F)ccc32)nn1 |  | Active | Active | Non-Toxic |  |
|  | C=C1CC[C@H]2C(C)(C)CCC[C@]2(C)[C@H]1C/C=C(\CC(=O)OCc1cn(CCCN2C(=O)C(=O)c3cc(OC)ccc32)nn1)C(=O)OCc1cn(CCCN2C(=O)C(=O)c3cc(OC)ccc32)nn1 |  | Active | Active | Non-Toxic |  |
|  | C=C1CC[C@H]2C(C)(C)CCC[C@]2(C)[C@H]1C/C=C(/C=O)CC(=O)OCc1cn(CCCN2C(=O)C(=O)c3ccccc32)nn1 |  | Active | Active | Non-Toxic | inactive |
|  | C=C1CC[C@H]2C(C)(C)CCC[C@]2(C)[C@H]1C/C=C(/C=O)CC(=O)OCc1cn(CCCCN2C(=O)C(=O)c3cc(I)ccc32)nn1 |  | Active | Active | Non-Toxic |  |
|  | C=C1CC[C@H]2C(C)(C)CCC[C@]2(C)[C@H]1C/C=C(/C=O)CC(=O)OCc1cn(CCN2C(=O)C(=O)c3cc(F)ccc32)nn1 |  | Active | Active | Non-Toxic | inactive |
|  | C=C1CC[C@H]2C(C)(C)CCC[C@]2(C)[C@H]1C/C=C(/C=O)CC(=O)OCc1cn(CCCCN2C(=O)C(=O)c3cc(Br)ccc32)nn1 |  | Active | Active | Non-Toxic |  |
|  | C=C1CC[C@H]2C(C)(C)CCC[C@]2(C)[C@H]1C/C=C(\CC(=O)O)C(=O)O |  | Active | Active | Non-Toxic |  |
|  | C=C1CC[C@H]2C(C)(C)CCC[C@]2(C)[C@H]1C/C=C(/C=O)CC(=O)OCc1cn(CCCN2C(=O)C(=O)c3cc(Br)ccc32)nn1 |  | Active | Active | Non-Toxic |  |
|  | C=C1CC[C@H]2C(C)(C)CCC[C@]2(C)[C@H]1C/C=C(/C=O)CC(=O)OCc1cn(CCCCN2C(=O)C(=O)c3cc(OC)ccc32)nn1 |  | Active | Active | Non-Toxic |  |
|  | C=C1CC[C@H]2C(C)(C)CCC[C@]2(C)[C@H]1C/C=C(\CC(=O)OCc1cn(CCN2C(=O)C(=O)c3cc(F)ccc32)nn1)C(=O)OCc1cn(CCN2C(=O)C(=O)c3cc(F)ccc32)nn1 |  | Active | Active | Non-Toxic |  |
|  | C=C1CC[C@H]2C(C)(C)CCC[C@]2(C)[C@H]1C/C=C(\CC(=O)OCc1cn(CCCN2C(=O)C(=O)c3cc(Cl)ccc32)nn1)C(=O)OCc1cn(CCCN2C(=O)C(=O)c3cc(Cl)ccc32)nn1 |  | Active | Active | Non-Toxic |  |
|  | C=C1CC[C@H]2C(C)(C)CCC[C@]2(C)[C@H]1C/C=C(/C=O)CC(=O)OCc1cn(CCCCN2C(=O)C(=O)c3cc(Cl)ccc32)nn1 |  | Active | Active | Non-Toxic |  |
|  | C=C1CC[C@H]2C(C)(C)CCC[C@]2(C)[C@H]1C/C=C(/C=O)CC(=O)OCc1cn(CCCN2C(=O)C(=O)c3cc(F)ccc32)nn1 |  | Active | Active | Non-Toxic | Active |
|  | C=C1CC[C@H]2C(C)(C)CCC[C@]2(C)[C@H]1C/C=C(/C=O)CC(=O)OCc1cn(CCN2C(=O)C(=O)c3cc(C)ccc32)nn1 |  | Active | Active | Non-Toxic |  |
|  | C=C1CC[C@H]2C(C)(C)CCC[C@]2(C)[C@H]1C/C=C(\CC(=O)OCc1cn(CCN2C(=O)C(=O)c3cc(I)ccc32)nn1)C(=O)OCc1cn(CCN2C(=O)C(=O)c3cc(I)ccc32)nn1 |  | Active | Active | Non-Toxic |  |
|  | C=C1CC[C@H]2C(C)(C)CCC[C@]2(C)[C@H]1C/C=C(/C=O)CC(=O)OCc1cn(CCCCN2C(=O)C(=O)c3cc(OC(F)(F)F)ccc32)nn1 |  | Active | Active | Non-Toxic |  |

| IC50 (RAW264.7 [1]) | SMILES | inhibition (RAW264.7 [2]) | Activity (RAW264.7 [3]) | Activity (RAW264.7 [4]) | Activity (RAW264.7 [5]) | Activity (RAW264.7 [6]) |
| --- | --- | --- | --- | --- | --- | --- |
|  | C=C1CC[C@H]2C(C)(C)CCC[C@]2(C)[C@H]1C/C=C(/C=O)CC(=O)OCc1cn(CCCN2C(=O)C(=O)c3cc(OC)ccc32)nn1 |  | Active | Active | Non-Toxic |  |
|  | C=C1CC[C@H]2C(C)(C)CCC[C@]2(C)[C@H]1C/C=C(/C=O)CC(=O)OCc1cn(CCN2C(=O)C(=O)c3cc(OC(F)(F)F)ccc32)nn1 |  | Active | Active | Non-Toxic | Active |
|  | C=C1CC[C@H]2C(C)(C)CCC[C@]2(C)[C@H]1C/C=C(/C=O)CC(=O)OCc1cn(CCN2C(=O)C(=O)c3cc(Br)ccc32)nn1 |  | Active | Active | Non-Toxic | inactive |
|  | C=C1CC[C@H]2C(C)(C)CCC[C@]2(C)[C@H]1C/C=C(/C=O)CC(=O)OCc1cn(CCN2C(=O)C(=O)c3cc(OC)ccc32)nn1 |  | Active | Active | Non-Toxic |  |
|  | C=C1CC[C@H]2C(C)(C)CCC[C@]2(C)[C@H]1C/C=C(\CC(=O)OCc1cn(CCN2C(=O)C(=O)c3cc(Br)ccc32)nn1)C(=O)OCc1cn(CCN2C(=O)C(=O)c3cc(Br)ccc32)nn1 |  | Active | Active | Non-Toxic |  |
|  | C=C1CC[C@H]2C(C)(C)CCC[C@]2(C)[C@H]1C/C=C(/C=O)CC=O |  | Active | Active | Non-Toxic |  |
|  | C=C1CC[C@H]2C(C)(C)CCC[C@]2(C)[C@H]1C/C=C(/C=O)CC(=O)OCc1cn(CCCN2C(=O)C(=O)c3cc(Cl)ccc32)nn1 |  | Active | Active | Non-Toxic |  |
|  | C=C1CC[C@H]2C(C)(C)CCC[C@]2(C)[C@H]1C/C=C(/C=O)CC(=O)OCc1cn(CCCN2C(=O)C(=O)c3cc(OC(F)(F)F)ccc32)nn1 |  | Active | Active | Non-Toxic |  |
|  | C=C1CC[C@H]2C(C)(C)CCC[C@]2(C)[C@H]1C/C=C(/C=O)CC(=O)OCc1cn(CCN2C(=O)C(=O)c3cc(Cl)ccc32)nn1 |  | Active | Active | Non-Toxic | inactive |
|  | C=C1CC[C@H]2C(C)(C)CCC[C@]2(C)[C@H]1C/C=C(\CC(=O)OCc1cn(CCN2C(=O)C(=O)c3cc(C)ccc32)nn1)C(=O)OCc1cn(CCN2C(=O)C(=O)c3cc(C)ccc32)nn1 |  | Active | Active | Non-Toxic |  |
|  | C=C1CC[C@H]2C(C)(C)CCC[C@]2(C)[C@H]1C/C=C(/C=O)CC(=O)OCc1cn(CCCCN2C(=O)C(=O)c3ccccc32)nn1 |  | Active | Active | Non-Toxic | inactive |
|  | C=C1CC[C@H]2C(C)(C)CCC[C@]2(C)[C@H]1C/C=C(\CC(=O)OCc1cn(CCN2C(=O)C(=O)c3cc(OC)ccc32)nn1)C(=O)OCc1cn(CCN2C(=O)C(=O)c3cc(OC)ccc32)nn1 |  | Active | Active | Non-Toxic |  |
|  | C=C1CC[C@H]2C(C)(C)CCC[C@]2(C)[C@H]1C/C=C(/C=O)CC(=O)OCc1cn(CCN2C(=O)C(=O)c3cc(I)ccc32)nn1 |  | Active | Active | Non-Toxic | inactive |
|  | C=C1CC[C@H]2C(C)(C)CCC[C@]2(C)[C@H]1C/C=C(/C=O)CC(=O)OCc1cn(CCCCN2C(=O)C(=O)c3cc(C)ccc32)nn1 |  | Active | Active | Non-Toxic | Active |
|  | C=C1CC[C@H]2C(C)(C)CCC[C@]2(C)[C@H]1C/C=C(/C=O)CC(=O)OCc1cn(CCCN2C(=O)C(=O)c3cc(I)ccc32)nn1 |  | Active | Active | Non-Toxic |  |
|  | C=C1CC[C@H]2C(C)(C)CCC[C@]2(C)[C@H]1C/C=C(\CC(=O)OCc1cn(CCN2C(=O)C(=O)c3ccccc32)nn1)C(=O)OCc1cn(CCN2C(=O)C(=O)c3ccccc32)nn1 |  | Active | Active | Non-Toxic | Active |
|  | C=C1CC[C@H]2C(C)(C)CCC[C@]2(C)[C@H]1C/C=C(/C=O)CC(=O)OCc1cn(CCCN2C(=O)C(=O)c3cc(C)ccc32)nn1 |  | Active | Active | Non-Toxic |  |

Reference: ChEMBL document CHEMBL5579867, “Ligand-Based Pharmacophoric Design and Anti-inflammatory Evaluation of Triazole Linked Semisynthetic Labdane Conjugates” (ACS Med Chem Lett, 2024)
